Values quoted from earlier work in US10251905B2, “Tissue maintenance” (Hibernation Therapeutics, A KF LLC, priority 2006, dated 2019).

Tests used:
NK(2) receptor = molecular target: T1, NK(2) receptor (Homo sapiens, UniProt P21452); details: relative to NK(1)
T1 sequence (P21452 1-398): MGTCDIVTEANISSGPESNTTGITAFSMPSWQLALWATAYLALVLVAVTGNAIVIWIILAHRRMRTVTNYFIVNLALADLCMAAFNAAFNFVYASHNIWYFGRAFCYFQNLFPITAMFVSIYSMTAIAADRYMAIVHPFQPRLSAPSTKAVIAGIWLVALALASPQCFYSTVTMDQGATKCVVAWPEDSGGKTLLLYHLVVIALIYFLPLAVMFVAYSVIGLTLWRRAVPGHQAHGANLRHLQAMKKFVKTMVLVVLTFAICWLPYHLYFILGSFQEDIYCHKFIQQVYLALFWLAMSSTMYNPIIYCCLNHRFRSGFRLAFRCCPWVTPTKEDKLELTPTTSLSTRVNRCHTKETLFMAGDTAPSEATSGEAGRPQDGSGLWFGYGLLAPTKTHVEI

human NK(1) receptor = human NK(1) receptor (Homo sapiens, UniProt P25103)
NK(3) receptor = molecular target: T2, NK(3) receptor (Homo sapiens, UniProt P29371); details: relative to NK(1)
T2 sequence (P29371 1-465): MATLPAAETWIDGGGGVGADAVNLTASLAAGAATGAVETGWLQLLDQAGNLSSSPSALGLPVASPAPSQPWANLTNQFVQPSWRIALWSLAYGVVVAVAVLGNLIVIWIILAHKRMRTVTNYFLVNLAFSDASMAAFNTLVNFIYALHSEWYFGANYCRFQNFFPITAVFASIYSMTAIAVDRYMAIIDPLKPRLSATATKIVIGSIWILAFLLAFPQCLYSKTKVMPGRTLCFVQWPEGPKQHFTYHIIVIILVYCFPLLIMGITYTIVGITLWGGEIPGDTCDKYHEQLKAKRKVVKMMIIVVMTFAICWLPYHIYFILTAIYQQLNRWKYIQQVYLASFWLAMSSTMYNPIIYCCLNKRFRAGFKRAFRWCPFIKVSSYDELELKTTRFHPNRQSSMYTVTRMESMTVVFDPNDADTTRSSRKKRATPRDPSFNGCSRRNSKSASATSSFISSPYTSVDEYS

Sequence of human NK(1) receptor (P25103 whole entry): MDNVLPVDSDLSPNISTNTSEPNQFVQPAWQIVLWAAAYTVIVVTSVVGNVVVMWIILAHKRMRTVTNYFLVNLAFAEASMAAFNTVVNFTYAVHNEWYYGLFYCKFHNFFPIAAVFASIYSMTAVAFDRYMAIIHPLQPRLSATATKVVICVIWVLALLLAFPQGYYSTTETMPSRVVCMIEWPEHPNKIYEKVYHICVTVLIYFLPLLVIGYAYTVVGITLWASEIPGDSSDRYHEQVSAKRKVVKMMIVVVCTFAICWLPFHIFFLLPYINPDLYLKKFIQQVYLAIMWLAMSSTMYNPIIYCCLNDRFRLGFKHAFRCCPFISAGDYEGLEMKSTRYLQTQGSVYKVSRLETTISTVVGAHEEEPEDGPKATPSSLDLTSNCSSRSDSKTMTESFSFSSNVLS

| half life in the blood | selectivity toward NK(2) receptors (NK(2) receptor) | Ki (human NK(1) receptor) [nM] | selectivity toward NK(3) receptors (NK(3) receptor) | Structure (SMILES) |
| --- | --- | --- | --- | --- |
| about 10 seconds | – | – | – | Nc1ncnc2c1ncn2[C@@H]1O[C@H](CO)[C@@H](O)[C@H]1O [adenosine] |
| – | over 200 fold | 0.45 | over 200 fold | Cc1cccc(C)c1NC(=O)C[C@H]1CCN(C(=O)c2cc(C(F)(F)F)cc(C(F)(F)F)c2)[C@@H](Cc2ccccc2)C1.O=C(O)C[C@H](O)C(=O)O (relative stereo) [R116301, (2R-trans)-4-[1-[3,5-bis(trifluoromethyl)benzoyl]-2-(phenylmethyl)-4-piperidinyl]-N-(2,6-dimethylphenyl)-1-acetamide (S)-Hydroxybutanedioate] |
